The first test deals with T1, Dipeptidyl peptidase 3 (Homo sapiens, UniProt Q9NY33).
T1 sequence (Q9NY33 whole entry): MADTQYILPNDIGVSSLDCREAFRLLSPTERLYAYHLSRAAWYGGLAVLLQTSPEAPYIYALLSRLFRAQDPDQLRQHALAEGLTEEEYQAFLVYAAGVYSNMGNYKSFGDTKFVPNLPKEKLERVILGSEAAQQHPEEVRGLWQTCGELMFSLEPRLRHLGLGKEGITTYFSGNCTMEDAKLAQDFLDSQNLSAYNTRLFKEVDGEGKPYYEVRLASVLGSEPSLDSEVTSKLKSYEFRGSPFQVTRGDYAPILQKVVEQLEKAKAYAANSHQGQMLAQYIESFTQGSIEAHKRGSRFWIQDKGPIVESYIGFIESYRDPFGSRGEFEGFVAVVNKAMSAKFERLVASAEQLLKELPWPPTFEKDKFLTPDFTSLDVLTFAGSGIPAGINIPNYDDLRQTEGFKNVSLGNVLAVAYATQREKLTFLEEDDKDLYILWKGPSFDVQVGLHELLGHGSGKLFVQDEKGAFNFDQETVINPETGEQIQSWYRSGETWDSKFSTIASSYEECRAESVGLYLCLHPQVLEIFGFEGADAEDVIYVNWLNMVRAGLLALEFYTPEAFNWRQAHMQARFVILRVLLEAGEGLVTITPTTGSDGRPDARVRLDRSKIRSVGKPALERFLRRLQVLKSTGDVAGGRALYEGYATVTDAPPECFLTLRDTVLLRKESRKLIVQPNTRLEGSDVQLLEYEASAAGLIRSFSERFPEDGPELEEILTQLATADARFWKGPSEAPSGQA
Description: Enzyme Inhibition Assay. As to conditions: pH 7.4; 25 °C. The text has this:
The IC50 value is defined as the concentration of an inhibitor with caused 50% reduction of the enzyme activity under specific condition. The principle of these assay with synthetic 2-naphthylamide substrates is based on the absorbance at 530nm of a chromophoric complex formed by the reaction product 2-naphthylamine with Fast Blue B salt.
By IC50 is commonly meant the concentration that inhibits the measured activity by half. Low values mean higher potency, high ones lower potency. The compound `c1ccc(C2C(c3nc4ccc(C5=NCCN5)cc4[nH]3)C(c3ccccc3)C2c2nc3ccc(C4=NCCN4)cc3[nH]2)cc1` (stereo not drawn) [2,4-Disubstituted-1,3-di-(5-amidino-2-benzoimidazolyl)-cyclobutane hydrochoride, 1'] returned an IC50 of 2.8 µM.
With `N=C(N)c1ccc2nc(C3C(c4ccccc4)C(c4nc5ccc(C(=N)N)cc5[nH]4)C3c3ccccc3)[nH]c2c1` (stereo not drawn) [2,4-Disubstituted-1,3-di-(5-amidino-2-benzoimidazolyl)-cyclobutane hydrochoride, 2'], the IC50 amounted to 5.6 µM.
With `CC(C)N=C(N)c1ccc2nc(C3C(c4ccccc4)C(c4nc5ccc(C(=N)NC(C)C)cc5[nH]4)C3c3ccccc3)[nH]c2c1` (stereo not drawn) [2,4-Disubstituted-1,3-di-(5-amidino-2-benzoimidazolyl)-cyclobutane hydrochoride, 3'], the IC50 was > 10 µM.
The same measure, in the same setting: in the case of `Clc1ccccc1C1C(c2nc3ccc(C4=NCCN4)cc3[nH]2)C(c2ccccc2Cl)C1c1nc2ccc(C3=NCCN3)cc2[nH]1` (stereo not drawn) [2,4-Disubstituted-1,3-di-(5-amidino-2-benzoimidazolyl)-cyclobutane hydrochoride, 4'] it was > 1.7 µM; in that of `N=C(N)c1ccc2nc(C3C(c4ccccc4Cl)C(c4nc5ccc(C(=N)N)cc5[nH]4)C3c3ccccc3Cl)[nH]c2c1` (stereo not drawn) [2,4-Disubstituted-1,3-di-(5-amidino-2-benzoimidazolyl)-cyclobutane hydrochoride, 5'], 7 µM; in that of `CC(C)N=C(N)c1ccc2nc(C3C(c4ccccc4Cl)C(c4nc5ccc(C(=N)NC(C)C)cc5[nH]4)C3c3ccccc3Cl)[nH]c2c1` (stereo not drawn) [2,4-Disubstituted-1,3-di-(5-amidino-2-benzoimidazolyl)-cyclobutane hydrochoride, 6'], 6 µM.
`c1coc(C2C(c3nc4ccc(C5=NCCN5)cc4[nH]3)C(c3ccco3)C2c2nc3ccc(C4=NCCN4)cc3[nH]2)c1` (stereo not drawn) [2,4-Disubstituted-1,3-di-(5-amidino-2-benzoimidazolyl)-cyclobutane hydrochoride, 7'] came in with an IC50 of 8 µM.
With `c1csc(C2C(c3nc4ccc(C5=NCCN5)cc4[nH]3)C(c3cccs3)C2c2nc3ccc(C4=NCCN4)cc3[nH]2)c1` (stereo not drawn) [2,4-Disubstituted-1,3-di-(5-amidino-2-benzoimidazolyl)-cyclobutane hydrochoride, 8'], the 50% inhibitory concentration (IC50) was determined as 10 µM.
Same read-out and setting: in the case of `N=C(N)c1ccc2[nH]c(-c3c[nH]cn3)nc2c1` [Benzimidazole derivative, 1] it was 53 µM; in that of `c1ncc(-c2nc3cc(C4=NCCN4)ccc3[nH]2)[nH]1` [Benzimidazole derivative, 2], 18 µM; in that of `C(=Cc1nc2ccc(C3=NCCN3)cc2[nH]1)c1ccccc1` [Benzimidazole derivative, 3], 10 µM.
Turning to `C(=C\c1nc2ccccc2[nH]1)/c1ccccc1` [Benzimidazole derivative, 4], the IC50 was > 100 µM.

Another test addresses T1, Dipeptidyl peptidase 3. Description: Enzyme Inhibition Assay. The conditions noted are these: pH 7.4; 25 °C. This is another data set of the same source.
Usually Kd stands for the free concentration of one partner at which half of the binding sites on the other are occupied at equilibrium, for simple one-to-one binding. The low end stands for higher affinity, the high end for lower affinity. The compound `c1ccc(C2C(c3nc4ccc(C5=NCCN5)cc4[nH]3)C(c3ccccc3)C2c2nc3ccc(C4=NCCN4)cc3[nH]2)cc1` (stereo not drawn) [2,4-Disubstituted-1,3-di-(5-amidino-2-benzoimidazolyl)-cyclobutane hydrochoride, 1'] displayed a Kd of 0.2 µM.

Values taken from BindingDB's records for doi:10.1016/j.bioorg.2006.11.002 (The Josip Juraj Strossmayer University, 2007).
